The source made the active and inactive calls. No cut-off for these calls is given here.
Key:
Type in all cases: functional, cell-based
ES-2 [1] = test: Inhibition of erastin-induced ferroptosis in human ES2 cells assessed as increase in cell viability incubated for 48 hrs in presence of erastin by MTT assay; conditions: ES-2, 48 h
LX-2 = test: Inhibition of erastin-induced ferroptosis in human LX2 cells assessed as increase in cell viability incubated for 48 hrs in presence of erastin by MTT assay; conditions: LX-2, 48 h
ES-2 [2] = test: Inhibition of staurosporine-induced apoptosis in human ES2 cells assessed as cell viability at 10 uM incubated for 24 hrs in presence of staurosporine by MTT assay
HT-29 = test: Inhibition of TNF-alpha/Smac-mimetic/Z-VAD-FMK-induced necrosis in human HT-29 cells assessed as cell viability at 10 uM incubated for 24 hrs in presence of TNF-alpha/Smac-mimetic/Z-VAD-FMK by MTT assay
THP-1 = test: Inhibition of LPS/nigericin-stimulated pyroptosis in PMA-differentiated human THP-1 cells assessed as cell viability at 10 uM treated with LPS for 4 hrs followed by incubation with compound and nigericin for 30 mins by MTT assay
ES-2 [3] = test: Inhibition of erastin-induced ferroptosis in human ES2 cells assessed as increase in intracellular GSH content at 1 uM measured after 8 to 10 hrs; conditions: time 8-10 hrs

Row | SMILES | EC50 (ES-2 [1]) [nM] | EC50 (LX-2) [nM] | other results
1 | COc1ccccc1-c1noc(-c2cccc3nc4ccccc4nc23)n1 | 13 | 5 | 
2 | Cc1ccccc1-c1noc(-c2cccc3nc4ccccc4nc23)n1 | 13 | 10 | 
3 | CC(C)c1noc(-c2cccc3nc4ccccc4nc23)n1 | 136 |  | 
4 | CC(C)(C)c1cccc(-c2noc(-c3cccc4nc5ccccc5nc34)n2)c1 | 3 | 7 | 
5 | FC(F)(F)Oc1cccc(-c2noc(-c3cccc4nc5ccccc5nc34)n2)c1 | 6 | 14 | 
6 | CN(C)c1cccc(-c2noc(-c3cccc4nc5ccccc5nc34)n2)c1 | 1 | 2 | 
7 | Fc1ccc(-c2noc(-c3cccc4nc5ccccc5nc34)n2)cc1 | 2 | 2 | 
8 | c1ccc2nc3c(-c4nc(-c5nccs5)no4)cccc3nc2c1 | 6 |  | 
9 | Fc1ccccc1-c1noc(-c2cccc3nc4ccccc4nc23)n1 | 5 | 1 | 
10 | Brc1cccc(-c2noc(-c3cccc4nc5ccccc5nc34)n2)c1 | 2 | 6 | 
11 | CCOc1ccccc1-c1noc(-c2cccc3nc4ccccc4nc23)n1 | 23 | 10 | 
12 | c1ccc2nc3c(-c4nc(-c5ccc(N6CCOCC6)cc5)no4)cccc3nc2c1 | 1 | 1 | 
13 | Cc1noc(-c2cccc3nc4ccccc4nc23)n1 | 268 |  | 
14 | FC(F)(F)c1ccccc1-c1noc(-c2cccc3nc4ccccc4nc23)n1 | 39 | 15 | 
15 | CCOC(=O)c1ccc(NC2CCCCC2)c(N)c1 | 70.1 | 67 | inhibition (ES-2 [2]): inactive; inhibition (HT-29): inactive; inhibition (THP-1): inactive; inhibition (ES-2 [3]): inactive
16 | c1ccc(-c2noc(-c3cccc4nc5ccccc5nc34)n2)nc1 | 131 |  | 
